Results published in the supplement of paper PMC10307832.

Tests used:
Assay in all cases: relative viability (nuclei count vs DMSO), 5 days (fraction); higher = more cells survive
QS11 + Bortezomib = compound: C1CC2=C(C1)C=C(C=C2)OC3=NC(=C4C(=N3)N(C=N4)CC5=CC=C(C=C5)C6=CC=CC=C6)N[C@@H](CC7=CC=CC=C7)CO [QS11] + CC(C)C[C@H](NC(=O)[C@H](Cc1ccccc1)NC(=O)c1cnccn1)B(O)O [Bortezomib] (partner 0.002 µM)
Procedure, shortened: (§1)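 Each reported value is a median over duplicate plates. It expresses relative viability: treated-well nuclei count divided by vehicle-well nuclei count. Lung cancer cell lines in 1536-well plates were dosed by pin tool a day after seeding, alone with one drug or with a fixed anchor-drug dose plus five library-drug doses (not always all listed) in √10 steps, and nuclei were counted after 5 days.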

QS11 + Linsitinib = compound: C1CC2=C(C1)C=C(C=C2)OC3=NC(=C4C(=N3)N(C=N4)CC5=CC=C(C=C5)C6=CC=CC=C6)N[C@@H](CC7=CC=CC=C7)CO [QS11] + C[C@]1(O)C[C@@H](c2nc(-c3ccc4ccc(-c5ccccc5)nc4c3)c3c(N)nccn32)C1 [Linsitinib] (partner 1 µM)
Procedure, shortened: as §1

[1] = compound: C[As](C)SC[C@H](NC(=O)CC[C@H](N)C(=O)O)C(=O)NCC(=O)O [Darinaparsin] + Nc1nc2[nH]cc(CCc3ccc(C(=O)N[C@@H](CCC(=O)O)C(=O)O)cc3)c2c(=O)[nH]1 [Pemetrexed] (partner 0.2 µM)
Procedure, shortened: as §1

AZ628 + Palbociclib = compound: CC1=C(C=C(C=C1)NC(=O)C2=CC(=CC=C2)C(C)(C)C#N)NC3=CC4=C(C=C3)N=CN(C4=O)C [AZ628] + CC(=O)c1c(C)c2cnc(Nc3ccc(N4CCNCC4)cn3)nc2n(C2CCCC2)c1=O [Palbociclib] (partner 0.5 µM)
Procedure, shortened: as §1

Cell Line	relative viability (QS11 + Bortezomib; first compound 0.08 µM)	relative viability (QS11 + Bortezomib; first compound 0.253 µM)	relative viability (QS11 + Bortezomib; first compound 0.8 µM)	relative viability (QS11 + Bortezomib; first compound 2.53 µM)	relative viability (QS11 + Bortezomib; first compound 8 µM)	relative viability (QS11 + Linsitinib; first compound 0.08 µM)	relative viability (QS11 + Linsitinib; first compound 0.253 µM)	relative viability (QS11 + Linsitinib; first compound 0.8 µM)	relative viability (QS11 + Linsitinib; first compound 2.53 µM)	relative viability (QS11 + Linsitinib; first compound 8 µM)	relative viability ([1]; first compound 0.08 µM)	relative viability ([1]; first compound 0.8 µM)	relative viability ([1]; first compound 2.53 µM)	relative viability ([1]; first compound 8 µM)	relative viability (AZ628 + Palbociclib; first compound 0.08 µM)	relative viability (AZ628 + Palbociclib; first compound 0.253 µM)	relative viability (AZ628 + Palbociclib; first compound 0.8 µM)	relative viability (AZ628 + Palbociclib; first compound 2.53 µM)	relative viability (AZ628 + Palbociclib; first compound 8 µM)
EBC-1	0.535	0.444	0.479	0.408	0.271	0.966	0.86	0.696	0.75	1.05	–	–	–	–	–	–	–	–	–
EKVX	0.941	1.09	–	1.07	1.1	1.04	0.995	–	1.02	0.982	0.458	0.385	0.388	0.412	0.393	0.374	0.478	0.452	0.3
EMC-BAC-2	1.06	1.05	0.941	0.985	0.677	0.825	0.826	0.728	0.815	0.73	0.452	0.44	0.53	0.472	0.521	0.55	0.535	0.519	0.554
EPLC-272H	0.954	0.947	0.81	0.946	0.798	1.16	1.47	1.12	1.09	1.23	0.319	0.292	0.321	0.293	0.32	0.345	0.292	0.317	0.25
H3255	0.813	0.782	–	0.761	0.746	0.954	0.97	–	0.973	1.03	0.576	0.587	0.522	0.54	0.284	0.297	0.309	0.326	0.328
HARA	1.25	1.19	–	1.05	1.24	0.965	1.02	–	0.912	1.19	0.269	–	0.22	0.294	0.216	0.3	0.223	0.275	0.222
HCC-15	1.06	1.16	–	1.03	0.982	0.965	0.993	–	0.857	0.841	0.223	0.221	0.211	0.213	0.708	0.718	0.656	0.677	0.421
HCC-44	0.885	0.76	0.681	0.766	0.697	0.79	0.647	0.532	0.549	0.531	0.7	0.607	0.669	0.721	1.01	0.942	0.96	0.958	1.15
HCC-78	0.478	0.484	0.457	0.486	0.544	0.517	0.528	0.463	0.579	0.514	0.953	0.884	0.838	0.964	0.478	0.454	0.516	0.53	0.449
